Reference: patent US12286435B2, “Compound having benzo seven-membered ring structure, preparation method therefor, and use thereof” (BIONNA (BEIJING) MEDICAL TECHNOLOGY CO., LTD., priority 2019, dated 2025)
Where a name gives a salt, the structure may show the parent alone. Read-outs that look alike come from different tables or passages of the source.

Columns and labels:
[1] = target: BRD4 BD2 protein (Homo sapiens (Human), UniProt O60885); assay: Fluorescence polarization binding affinity (Ki) with BRD4 BD2 protein
[2] = target: BRD4 BD1 protein (Homo sapiens (Human), UniProt O60885); assay: Fluorescence polarization binding affinity (Ki) with BRD4 BD1 protein
[3] = fluorescence polarization, Ki calculated from IC50

| Molecule | Ki [1, 3] [nM] | Ki [2, 3] [nM] | Ki [1] [nM] | Ki [2] [nM] |
| --- | --- | --- | --- | --- |
| COc1cccc(NC2CCn3nnc(C)c3-c3ccc(C4=CCNCC4)cc32)c1 (centres unmarked) [LC159, N-(3-methoxyphenyl)-1-methyl-9-(1,2,3,6-tetrahydropyridin-4-yl)-6,7-dihydro-5H-benzo[c][1,2,3]triazolo[1,5-a]azepin-7-amine 2,2,2-trifluoroacetate] | 65.4 | 2130 | – | – |
| Cc1nnn2c1-c1ccc(C3=CCNCC3)cc1C(Nc1ccccc1Cl)CC2 (centres unmarked) [LC84, N-(2-chlorophenyl)-1-methyl-9-(1,2,3,6-tetrahydropyridin-4-yl)-6,7-dihydro-5H-benzo[c][1,2,3]triazolo[1,5-a]azepin-7-amine 2,2,2-trifluoroacetate] | 37.8 | 845 | – | – |
| Cc1nnn2c1-c1ccc(C3=CCN(C4CCCCC4)CC3)cc1C(Nc1cccc(Cl)c1F)CC2 (centres unmarked) [RD178, N-(3-chloro-2-fluorophenyl)-9-(1-cyclohexyl-1,2,3,6-tetrahydropyridin-4-yl)-1-methyl-6,7-dihydro-5H-benzo[c][1,2,3]triazolo[1,5-a]azepin-7-amine 2,2,2-trifluoroacetate] | – | – | 32.7 | 1260 |
| Cc1nnn2c1-c1ccc(-c3cnn(C)c3)cc1C(Nc1ccccc1C#N)CC2 (centres unmarked) [LC136, 2-((1-methyl-9-(1-methyl-1H-pyrazol-4-yl)-6,7-dihydro-5H-benzo[c][1,2,3]triazolo[1,5-a]azepin-7-yl)amino)benzonitrile] | 8.83 | 49.7 | – | – |
| Cc1nnn2c1-c1ccc(C3=CCNCC3)cc1C(Nc1cc(F)cc(Cl)c1)CC2 (centres unmarked) [BH06, N-(3-chloro-5-fluorophenyl)-1-methyl-9-(1,2,3,6-tetrahydropyridin-4-yl)-6,7-dihydro-5H-benzo[c][1,2,3]triazolo[1,5-a]azepin-7-amine 2,2,2-trifluoroacetate] | 35.7 | 596 | – | – |
| Cc1nnn2c1-c1ccc(C3=CCN(C(C)C)CC3)cc1[C@@H](Nc1cccc(Cl)c1)CC2 [RE10 (S), (7S)—N-(3-chlorophenyl)-9-(1-isopropyl-1,2,3,6-tetrahydropyridin-4-yl)-1-methyl-6,7-dihydro-5H-benzo[c][1,2,3]triazolo[1,5-a]azepin-7-amine 2,2,2-trifluoroacetate] | 177 | 884 | – | – |
| Cc1nnn2c1-c1ccc(C3=CCNCC3)cc1C(Nc1cccc(Cl)c1F)CC2 (centres unmarked) [LC190, N-(3-chloro-2-fluorophenyl)-1-methyl-9-(1,2,3,6-tetrahydropyridin-4-yl)-6,7-dihydro-5H-benzo[c][1,2,3]triazolo[1,5-a]azepin-7-amine 2,2,2-trifluoroacetate] | 60 | 592 | – | – |
| Cc1nnn2c1-c1ccc(C3=CCNCC3)cc1C(Nc1ccc(F)c(Cl)c1)CC2 (centres unmarked) [LC192, N-(3-chloro-4-fluorophenyl)-1-methyl-9-(1,2,3,6-tetrahydropyridin-4-yl)-6,7-dihydro-5H-benzo[c][1,2,3]triazolo[1,5-a]azepin-7-amine 2,2,2-trifluoroacetate] | 56.6 | 819 | – | – |
| Cc1nnn2c1-c1ccc(C3=CCNCC3)cc1C(Nc1ccccc1CC#N)CC2 (centres unmarked) [RC82, 2-(2-((1-methyl-9-(1,2,3,6-tetrahydropyridin-4-yl)-6,7-dihydro-5H-benzo[c][1,2,3]triazolo[1,5-a]azepin-7-yl)amino)phenyl) acetonitrile 2,2,2-trifluoroacetate] | 1520 | 2370 | – | – |
| Cc1nnn2c1-c1ccc(C3=CCN(C4CCC4)CC3)cc1C(Nc1cccc(Cl)c1F)CC2 (centres unmarked) [RE30, N-(3-chloro-2-fluorophenyl)-9-(1-cyclobutyl-1,2,3,6-tetrahydropyridin-4-yl)-1-methyl-6,7-dihydro-5H-benzo[c][1,2,3]triazolo[1,5-a]azepin-7-amine 2,2,2-trifluoroacetate] | – | – | 30.2 | 413 |
| COc1ccccc1NC1CCn2nnc(C)c2-c2ccc(C3=CCNCC3)cc21 (centres unmarked) [LC158, N-(2-methoxyphenyl)-1-methyl-9-(1,2,3,6-tetrahydropyridin-4-yl)-6,7-dihydro-5H-benzo[c][1,2,3]triazolo[1,5-a]azepin-7-amine 2,2,2-trifluoroacetate] | 41.6 | 859 | – | – |
| Cc1nnn2c1-c1ccc(-c3cnn(C)c3)cc1[C@H](Nc1ccc(Cl)cc1)CC2 [RE127, (R)—N-(4-chlorophenyl)-1-methyl-9-(1-methyl-1H-pyrazo1-4-yl)-6,7-dihydro-5H-benzo[c][1,2,3]triazolo[1,5-a]azepin-7-amine] | < 1 | 4.15 ± 0.21 | – | – |
| COc1cccc(NC2CCn3nnc(C)c3-c3ccc(C4=CCN(C(C)=O)CC4)cc32)c1 (centres unmarked) [BH27, 1-(4-(7-((3-methoxyphenyl)amino)-1-methyl-6,7-dihydro-5H-benzo[c][1,2,3]triazolo[1,5-a]azepin-9-yl)-3,6-dihydropyridin-1(2H)-yl)ethan-1-one] | 2.95 | 70.1 | – | – |
| Cc1nnn2c1-c1ccc(C3=CCN(C(C)C)CC3)cc1C(Nc1cc(Cl)ccc1F)CC2 (centres unmarked) [BI68, N-(5-chloro-2-fluorophenyl)-9-(1-isopropyl-1,2,3,6-tetrahydropyridin-4-yl)-1-methyl-6,7-dihydro-5H-benzo[c][1,2,3]triazolo[1,5-a]azepin-7-amine 2,2,2-trifluoroacetate] | 45.1 | 1110 | – | – |
| N-(4-chlorophenyl)-9-(3,6-dihydro-2H-pyran-4-yl)-1-methyl-6,7-dihydro-5H-benzo[c][1,2,3]triazolo[1,5-a]azepin-7-amine [LD31] | – | – | 17.1 | 39.1 |
| Cc1nnn2c1-c1ccc(C3=CCN(C4CCC4)CC3)cc1C(Nc1cccc(C#N)c1)CC2 (centres unmarked) [BI36, 3-(((9-(1-cyclobutyl-1,2,3,6-tetrahydropyridin-4-yl))-1-methyl-6,7-dihydro-5H-benzo[c][1,2,3]triazolo[1,5-a]azepin-7-yl)amino)benzonitrile 2,2,2-trifluoroacetate] | 89.8 | 1850 | – | – |
| CCn1cc(-c2ccc3c(c2)[C@H](Nc2ccc(Cl)cc2)CCn2nnc(C)c2-3)cn1 [RE136, (R)—N-(4-chlorophenyl)-9-(1-ethyl-1H-pyrazol-4-yl)-1-methyl-6,7-dihydro-5H-benzo[c][1,2,3]triazolo[1,5-a]azepin-7-amine] | < 1 | 2.66 ± 0.37 | – | – |
| Cc1nnn2c1-c1ccc(C3CCNCC3)cc1C(Nc1ccc(Cl)cc1)CC2 (centres unmarked) [BF169, N-(4-chlorophenyl)-1-methyl-9-(piperidin-4-yl)-6,7-dihydro-5H-benzo[c][1,2,3]triazolo[1,5-a]azepin-7-amine hydrochloride] | 661 | > 20000 | – | – |
| Cc1nnn2c1-c1ccc(C3=CCNCC3)cc1C(Nc1ccc(F)cc1)CC2 (centres unmarked) [BJ122, N-(4-fluorophenyl)-1-methyl-9-(1,2,3,6-tetrahydropyridin-4-yl)-6,7-dihydro-5H-benzo[c][1,2,3]triazolo[1,5-a]azepin-7-amine 2,2,2-trifluoroacetate] | 68.6 | 757 | – | – |
| Cc1nnn2c1-c1ccc(-c3cnn(C)c3)cc1C(NC1CCCCC1)CC2 (centres unmarked) [BH46, N-cyclohexyl-1-methyl-9-(1-methyl-1H-pyrazol-4-yl)-6,7-dihydro-5H-benzo[c][1,2,3]triazolo[1,5-a]azepin-7-amine 2,2,2-trifluoroacetate] | 907 | 689 | – | – |
| Cc1nnn2c1-c1ccc(C3=CCNCC3)cc1C(Nc1cccc(C#N)c1)CC2 (centres unmarked) [LC75, 3-((1-methyl-9-(1,2,3,6-tetrahydropyridin-4-yl)-6,7-dihydro-5H-benzo[c][1,2,3]triazolo[1,5-a]azepin-7-yl)amino)benzonitrile 2,2,2-trifluoroacetate] | 116 | 2290 | – | – |
| Cc1nnn2c1-c1ccc(C3=CCNCC3)cc1C(Nc1ccccc1C#N)CC2 (centres unmarked) [RC116, 2-((1-methyl-9-(1,2,3,6-tetrahydropyridin-4-yl)-6,7-dihydro-5H-benzo[c][1,2,3]triazolo[1,5-a]azepin-7-yl)amino)benzonitrile 2,2,2-trifluoroacetate] | 115 | 1000 | – | – |
| Cc1nnn2c1-c1ccc(C3=CCNCC3)cc1C(Nc1ccc(CC#N)cc1)CC2 (centres unmarked) [RC73, 2-(4-((1-methyl-9-(1,2,3,6-tetrahydropyridin-4-yl)-6,7-dihydro-5H-benzo[c][1,2,3]triazolo[1,5-a]azepin-7-yl)amino)phenyl)acetonitrile 2,2,2-trifluoroacetate] | 139 | 2370 | – | – |
| Cc1nnn2c1-c1ccc(C3=CCN(C)CC3)cc1C(Nc1ccc(CO)cc1)CC2 (centres unmarked) [RD41, (4-((1-methyl-9-(1-methyl-1,2,3,6-tetrahydropyridin-4-yl)-6,7-dihydro-5H-benzo[c][1,2,3]triazolo[1,5-a]azepin-7-yl)amino)pheny 1)methanol 2,2,2-trifluoroacetate] | 55.1 | 1550 | – | – |
| CC(=O)N1CC=C(c2ccc3c(c2)C(Oc2cccc(Cl)c2)CCn2nnc(C)c2-3)CC1 (centres unmarked) [BH81, 1-(4-(7-(3-chlorophenoxy)-1-methyl-6,7-dihydro-5H-benzo[c][1,2,3]triazolo[1,5-a]azepin-9-yl)-3,6-dihydropyridin-1(2H)-yl)ethan-1-one] | 31.1 | 869 | – | – |
| Cc1nnn2c1-c1ccc(C3=CCN(C4CCCCC4)CC3)cc1C(Nc1cccc(C#N)c1)CC2 (centres unmarked) [BI29, 3-((9-(1-cyclohexyl-1,2,3,6-tetrahydropyridin-4-yl)-1-methyl-6,7-dihydro-5H-benzo[c][1,2,3]triazolo[1,5-a]azepin-7-yl)amino)benzonitrile 2,2,2-trifluoroacetate] | 168 | 2660 | – | – |
| Cc1nnn2c1-c1ccc(C3=CCNCC3)cc1C(Nc1cccc(CC#N)c1)CC2 (centres unmarked) [RC71, 2-(3-((1-methyl-9-(1,2,3,6-tetrahydropyridin-4-yl)-6,7-dihydro-5H-benzo[c][1,2,3]triazolo[1,5-a]azepin-7-yl)amino)phenyl)acetonitrile 2,2,2-trifluoroacetate] | 52.5 | 1040 | – | – |
| COC(=O)c1ccccc1NC1CCn2nnc(C)c2-c2ccc(-c3cnn(C)c3)cc21 (centres unmarked) [LB160, methyl 2-((1-methyl-9-(1-methyl-1H-pyrazol-4-yl)-6,7-dihydro-5H-benzo[c][1,2,3]triazolo[1,5-a]azepin-7-yl)amino)benzoate] | 12.5 | 96.4 | – | – |
